Values joined by “and” are separate entries in the source; they are usually repeats but may differ in a detail not shown here. Identical values can stand only once.
Legend:
pRIPK1, pRIPK3, pMLKL = assay: DSS-induced IBD mouse model: colon western blot; format: in vivo, C57BL/6 female mice; details: 40 mg/kg i.p., day 7
Experimental: The liver in the SIRS model and the colon in the IBD model were harvested, homogenated and sonicated in RIPA lysis buffer.
The cell proteins or tissue proteins were separated in a polyacrylamide gel and transferred to a methanol-activated polyvinylidene fluoride membrane. The membrane was blocked for 2 h in Tris-buffered saline plus Tween-20 containing 5% milk and then immunoblotted sequentially with primary and secondary antibodies. Detection was performed with an ECL chemiluminescence kit (Abbkine). The antibodies used were human RIPK1 antibody (R&D, 334640, 1:1000), mouse RIPK1 antibody (Affinity, DF2642, 1:1000), human phospho-RIP (Ser166) rabbit mAb (Cell Signaling Technologies, 65746, 1:1000), mouse phospho-RIP (Ser321) rabbit mAb (Cell Signaling Technologies, 38662, 1:1000), human RIPK3 (B-2) antibody (Santa Cruz, sc-374639, 1:250), mouse RIPK3 antibody (Abcam, ab62344, 1:1000), human anti-RIP3 (phospho S227) antibody (Abcam, ab209384, 1:2000), mouse anti-RIP3 (phospho T231 + S232) antibody (Abcam, ab205421, 1:500), anti-MLKL (58–70) antibody (Sigma, M6697, 1:250), human anti-MLKL (phospho S358) antibody (Abcam, ab187091, 1:1000), mouse anti-MLKL (phospho S345) antibody (Abcam, ab196436, 1:1000), and β-actin (Proteintech, 66009-1-Ig, 1:1000).

TNFα = assay: DSS-induced IBD mouse model: TNFα in cultured colon supernatant (ELISA); format: in vivo, C57BL/6 female mice
Experimental: DSS (3% w/v) was administered in drinking water ad libitum for 7 d (from day 0 to day 7). DSS solution was replaced three times on day 2, day 4, and day 6. […] Three mice in each group were killed at random on day 7, and distal colon tissues were collected for analysis. The mice weight and survival rate were recorded daily.
In the TNFα-induced SIRS model, at 6 h after TNFα injection, four mice in each group were killed at random, and the serums were collected, the serum concentrations of IL-1β and IL-6 were measured using ELISA kits (Neobioscience Technology) according to manufacturer’s instructions. […] The supernatant was collected by sequential centrifugation at 500 × g for 10 min and 3000 × g for 10 min. The concentrations of cytokines TNFα, IL-6, and IL-1β were measured using ELISA kits (Neobioscience Technology).

[1] = C57B6, mouse, in vivo
[2] = tested on: RIPK1 knockout HT29 cells; assay: TSZ treatment of RIPK1 knockout HT29 cells (CCK8); format: cell-based; details: Homo sapiens, HT-29, read-out: Cell Viability (%) Average
Experimental: (§1) Cell necroptosis protection assays were performed in 96-well cell culture plates. Cells were plated in each well and cultured at 37 °C overnight. […] The cell survival rate was determined using a CCK8 cell viability assay kit and CLARIOstar (v5.61). […] All experiments were performed at least two times, and each EC50 value was expressed as mean ± standard deviation (SD).
The lentiCRISPRv2 vector targeting RIPK1 (sgRNA, 5’- […]-3’) was constructed by the Azenta company. HEK 293 T cells were transfected with lentiCRISPRv2 targeting RIPK1 and empty vector using Hieff Trans^TM Liposomal Transfection Reagent (Yeasen), respectively. […] The concentrated viruses were added to HT29 cells along with 8 μg/mL of polybrene (Yeasen) to enhance transfection efficiency. The infection assay was repeated in the next day under the same conditions. Finally, HT29 cells were screened with 3 μg/mL puromycin. Western blot analysis was used to confirm the RIPK1 deletion.

L929 cells = assay: TZ-induced L929 cell necroptosis model (CCK8); format: cell-based; details: Mus musculus
Experimental: as §1

TNFα-induced SIRS = TNFα-induced SIRS mouse model: H&E histology of organs; format: in vivo, C57BL/6 female mice; details: 40 mg/kg i.p.
Experimental: The body temperatures of the mice were continuously monitored until 6 h after TNFα administration. At 6 h after TNFα injection, four mice in each group were killed at random, and the serums, heart, liver, spleen, lung, and kidney tissues were collected for analysis. Mice mortality was continuously monitored until 72 h after TNFα administration.
The heart, liver, spleen, lung, kidney and colon tissues were fixed directly in 4% paraformaldehyde (24 h), embedded in paraffin, and stained with H&E following standard procedures. All images were acquired using a Pannoramic MIDI scanner.

[3] = molecular target: panel of human kinases (kinase named in endpoint) (Homo sapiens, UniProt P43250); assay: Kinase inhibitory activity profiling of RI-962@10 µM (406 kinases, Eurofins); format: biochemical; details: 10 µM; read-out: Activity (%), GRK6(h)
Experimental: (§2) In vitro kinase activity assays were conducted through the Kinase Profiling Services provided by Eurofins (Eurofins, France). The protocol for the RIPK1 assay is briefly described as follows (Protocols for other kinases are very similar and can be found in http://www.eurofins.com/pharmadiscovery). RIPK1 kinase was incubated with the test compound in assay buffer containing 8 mM MOPS (pH 7.0), 0.2 mM EDTA, 250 μM […], 10 mM magnesium acetate, and 10 μM [γ-33P]-ATP for 15 min at room temperature. The reaction was initiated by the addition of the Mg/ATP mixture. After incubation for 40 min at room temperature, and the reaction was stopped by the addition of 3% phosphoric acid. A 10 μL portion of the reaction mixture was then spotted onto a P30 filter mat and washed four times for 4 min in 0.425% phosphoric acid and once in methanol prior to drying and scintillation counting.

[4] = molecular target: panel of human kinases (kinase named in endpoint) (Homo sapiens, UniProt Q13043); assay: as above; format: biochemical; details: 10 µM; read-out: Activity (%), MST1(h)
Experimental: as §2

[5] = molecular target: panel of human kinases (kinase named in endpoint) (Homo sapiens, UniProt P36897); assay: as above; format: biochemical; details: 10 µM; read-out: Activity (%), TGFBR1(h)
Experimental: as §2

Chain of panel of human kinases (kinase named in endpoint) (Homo sapiens, UniProt Q13043) (Q13043 whole entry): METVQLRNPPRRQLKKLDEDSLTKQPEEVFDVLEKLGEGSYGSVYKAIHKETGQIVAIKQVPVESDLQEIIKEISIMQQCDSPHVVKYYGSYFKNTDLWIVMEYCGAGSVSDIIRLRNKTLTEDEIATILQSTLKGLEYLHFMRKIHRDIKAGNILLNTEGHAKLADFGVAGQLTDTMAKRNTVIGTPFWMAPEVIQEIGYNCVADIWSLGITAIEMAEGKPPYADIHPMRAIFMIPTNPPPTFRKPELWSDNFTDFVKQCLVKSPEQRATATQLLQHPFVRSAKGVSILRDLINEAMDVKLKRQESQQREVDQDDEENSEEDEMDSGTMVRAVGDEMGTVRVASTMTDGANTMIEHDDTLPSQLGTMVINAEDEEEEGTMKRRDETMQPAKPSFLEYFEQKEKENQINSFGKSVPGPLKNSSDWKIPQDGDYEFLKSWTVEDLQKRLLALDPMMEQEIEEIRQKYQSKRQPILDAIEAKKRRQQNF
Chain of panel of human kinases (kinase named in endpoint) (Homo sapiens, UniProt P43250) (P43250 whole entry): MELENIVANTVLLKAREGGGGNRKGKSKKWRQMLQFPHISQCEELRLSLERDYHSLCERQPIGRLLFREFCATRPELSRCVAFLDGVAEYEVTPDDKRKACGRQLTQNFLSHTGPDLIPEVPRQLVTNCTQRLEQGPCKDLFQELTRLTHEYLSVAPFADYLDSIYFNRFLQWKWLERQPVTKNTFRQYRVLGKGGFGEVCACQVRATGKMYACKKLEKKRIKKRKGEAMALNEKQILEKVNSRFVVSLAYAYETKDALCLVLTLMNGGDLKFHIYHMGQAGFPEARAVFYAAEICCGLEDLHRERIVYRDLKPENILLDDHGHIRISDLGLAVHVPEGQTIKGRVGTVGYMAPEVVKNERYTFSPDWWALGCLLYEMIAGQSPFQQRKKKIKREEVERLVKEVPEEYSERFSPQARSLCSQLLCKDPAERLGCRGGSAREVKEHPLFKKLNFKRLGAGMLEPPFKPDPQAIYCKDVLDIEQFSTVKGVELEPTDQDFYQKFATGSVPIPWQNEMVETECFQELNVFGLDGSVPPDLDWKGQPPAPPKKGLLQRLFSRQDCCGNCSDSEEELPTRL
Chain of panel of human kinases (kinase named in endpoint) (Homo sapiens, UniProt P36897) (P36897 34-503): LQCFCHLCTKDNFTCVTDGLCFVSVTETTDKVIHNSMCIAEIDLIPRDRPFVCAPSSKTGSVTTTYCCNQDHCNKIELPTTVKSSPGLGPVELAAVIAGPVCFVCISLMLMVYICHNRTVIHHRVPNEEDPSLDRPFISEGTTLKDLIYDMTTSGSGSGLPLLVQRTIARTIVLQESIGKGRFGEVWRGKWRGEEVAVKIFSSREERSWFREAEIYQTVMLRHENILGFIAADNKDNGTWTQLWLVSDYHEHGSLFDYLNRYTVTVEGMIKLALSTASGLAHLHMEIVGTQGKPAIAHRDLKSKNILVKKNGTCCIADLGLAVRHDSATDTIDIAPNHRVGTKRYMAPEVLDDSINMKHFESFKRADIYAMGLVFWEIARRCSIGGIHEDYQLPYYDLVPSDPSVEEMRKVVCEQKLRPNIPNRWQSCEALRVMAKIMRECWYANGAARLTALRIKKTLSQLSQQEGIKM

SMILES: CC(C)C(=O)Nc1nc2cc(-c3ccc4c(c3)c(C(=O)NC(C)c3ccccc3)cn4C)ccn2n1 (stereo not drawn) [RI-962]
- levels of pRIPK1, pRIPK3, and pMLKL in the colon (pRIPK1, pRIPK3, pMLKL): reduced the levels of pRIPK1, pRIPK3, and pMLKL proteins
- content of TNFα in cultured colonic tissue supernatants (TNFα; 40 mg/kg i.p., day 7): substantially reduced
- TNFα (TNFα; Figure 9g, individual replicates 1-3): 139.9 pg/mL and 111.6 pg/mL and 109.1 pg/mL
- doses well tolerated [1]: up to 250 mg/kg
- viability at 0.000169 µM ([2]; 0.000169 μM + TSZ): 89.4%
- viability at 0.000508 µM ([2]; 0.000508 μM + TSZ): 103%
- viability at 0.001524 µM ([2]; 0.001524 μM + TSZ): 87.5%
- viability at 0.004572 µM ([2]; 0.004572 μM + TSZ): 87.3%
- viability at 0.013717 µM ([2]; 0.013717 μM + TSZ): 90.8%
- viability at 0.041152 µM ([2]; 0.041152 μM + TSZ): 90.1%
- viability at 0.123457 µM ([2]; 0.123457 μM + TSZ): 94.4%
- viability at 0.37037 µM ([2]; 0.370370 μM + TSZ): 104%
- viability at 1.11111 µM ([2]; 1.111111 μM + TSZ): 97.9%
- viability at 56 pM (L929 cells; L929, 0.000056 μM): 19.1%
- viability at 0.000169 µM (L929 cells; L929, 0.000169 μM): 22.9%
- viability at 0.000508 µM (L929 cells; L929, 0.000508 μM): 24.8%
- viability at 0.001524 µM (L929 cells; L929, 0.001524 μM): 35.2%
- viability at 0.004572 µM (L929 cells; L929, 0.004572 μM): 62.2%
- viability at 0.013717 µM (L929 cells; L929, 0.013717 μM): 83.1%
- viability at 0.041152 µM (L929 cells; L929, 0.041152 μM): 89.4%
- viability at 0.123457 µM (L929 cells; L929, 0.123457 μM): 105%
- viability at 0.37037 µM (L929 cells; L929, 0.370370 μM): 98.5%
- viability at 1.11111 µM (L929 cells; L929, 1.111111 μM): 103%
- viability at 3.33333 µM (L929 cells; L929, 3.333333 μM): 99.1%
- viability at 10 µM (L929 cells; L929, 10.000000 μM): 91.6%
- EC50 (L929 cells; L929 treated with TZ, 24 h): 4.2 nM
- damage to the liver and kidney (H&E) (TNFα-induced SIRS): attenuated damage to the liver and kidney
- activity at 10 µM [3]: 108%
- activity at 10 µM [4]: 95%
- activity at 10 µM [5]: 98%

— publication PMC9653409, “Generative deep learning enables the discovery of a potent and selective RIPK1 inhibitor” (Nature Communications, 2022)
